For six compounds, GI50 and IC50 results are on record in US12281121B2, “N-containing heteroaryl derivative and pharmaceutical composition comprising same as active ingredient for prevention or treatment of cancer” (VORONOI Inc., priority 2019, dated 2025).

The subject of assay [1] is Ba/F3 KIF5B-RET (V804M) cells. Description: Cell proliferation inhibition, CellTiter-Glo. It is filed as cell-based. To be noted: Mus musculus, BaF3, 72 hours. As for the experimental part: (§1) Among lung cancer cell lines, which express RET fusion genes, LC-2/ad cells were cultured after adding 10% FBS (HyClone) to RPMI:F12 (1:1) (Invitrogen), and F-12 (Invitrogen) supplemented with 10% FBS was used for TT cells. RPMI-1640 supplemented with 10% FBS and 5 ng/ml IL-3 (R&D Systems) was used for Ba/F3 cells. Transduced Ba/F3 cells were cultured by adding 1 ug/ml puromycin (Invitrogen) to the same medium. 24 hours before cells were treated with the compound, 3000 to 5000 cells were aliquoted into each well of a white clear bottom 96 well plate (Corning). The compound was diluted in DMSO (3-fold dilution, a total of 12 concentrations) and the compound was injected by 0.5 μl such that the final concentration was 0.3 nM to 50 μM. For the measurement of living cells, 72 hours after the compound treatment, the cells were stored at room temperature for 10 minutes using a CellTiter-Glo luminescent cell-viability agent (Promega), and then the luminescence intensity was measured using a reader (SynergyNeo, Biotek). Each experiment was repeated in triplicate. The result value was calculated by the cell growth ratio (%) compared to the control. A graph was drawn using the GraphPad Prism version 5.0 program, and a GI50 (nM) value was calculated.
(§2) In the cell assay column, LC-2/ad (with CCDC6-RET gene) is a lung cancer cell line, a TT cell line ([…]) is a thyroid cancer cell line, Ba/F3 CCDC6-RET (WT), Ba/F3 KIF5B-RET (WT), and Ba/F3 KIF5B-RET (V804M) are cells in which disease-related traits (CCDC6-RET, KIF5B-RET, and KIF5B-RET (V804M)) are introduced into Ba/F3 cells, and Ba/F3 (naive) is a cell which is not transduced.
On the technique in general: In ATP-based viability assays light output follows the ATP content of the culture.

Assay [2] has as its system TT cells. Description: Cell proliferation inhibition, CellTiter-Glo. To be noted: Homo sapiens; TT thyroid cancer cell line, 72 hours. It is filed as cell-based. As for the experimental part: as §1, §2
Assay [3] concerns Ba/F3 CCDC6-RET (WT) cells. The assay is described as follows: Cell proliferation inhibition, CellTiter-Glo. It counts as cell-based. As to conditions: BaF3/CCDC6-RET, 72 hours. As to the method:
as §1, §2

The subject of assay [4] is Ba/F3 (naive) cells. Description: Cell proliferation inhibition, CellTiter-Glo. It counts as cell-based. To be noted: Mus musculus, BaF3; Ba/F3 not transduced, 72 hours. As to the method:
as §1, §2

Assay [5] relates to Ba/F3 KIF5B-RET (WT) cells. The assay is described as follows: Cell proliferation inhibition, CellTiter-Glo. It counts as cell-based. To be noted: Mus musculus, BaF3, 72 hours. As for the experimental part:
as §1, §2

For assay [6], the target named is T1, RET (WT) (Homo sapiens, UniProt P07949).
T1 construct: human RET (658-end, SIGNALCHEM); purchased SIGNALCHEM
T1 sequence (P07949 658-1114 limits assumed): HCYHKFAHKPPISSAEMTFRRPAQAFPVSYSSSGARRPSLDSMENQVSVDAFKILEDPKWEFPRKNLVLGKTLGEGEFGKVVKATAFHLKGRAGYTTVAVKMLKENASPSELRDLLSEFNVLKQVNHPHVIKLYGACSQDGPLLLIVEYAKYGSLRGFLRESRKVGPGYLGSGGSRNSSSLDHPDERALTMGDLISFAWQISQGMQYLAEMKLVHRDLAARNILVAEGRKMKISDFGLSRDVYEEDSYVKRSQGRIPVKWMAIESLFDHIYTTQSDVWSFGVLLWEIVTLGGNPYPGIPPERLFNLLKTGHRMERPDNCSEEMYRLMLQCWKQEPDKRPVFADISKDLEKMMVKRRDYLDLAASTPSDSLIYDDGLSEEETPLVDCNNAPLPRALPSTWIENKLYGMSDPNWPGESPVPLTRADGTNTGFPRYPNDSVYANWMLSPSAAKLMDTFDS
The assay is described as follows: RET enzyme inhibitory ability, ADP-Glo kinase assay. It is filed as biochemical. As to conditions: ATP 10 μM, 25° C., 1 hour. As for the experimental part: The Example compound was reacted with a purified human RET (658-end, SIGNALCHEM) enzyme to evaluate the enzyme inhibitory ability by the following method. As a reaction buffer, a composition of 40 mM Tris-HCl pH 7.4, 20 mM MgCl2, 0.5 mg/mL BSA, and 50 μM DTT was used, and all experimental materials were reacted on the reaction buffer. After the human RET (658-end, 0.8 ng) enzyme was reacted with purified ATP (10 μM) and a specific substrate solution at 25° C. for 1 hour during the experiment, the enzyme activity was confirmed using in vitro ADP-Glo™ kinase assay (Promega). Luminescence was measured by reacting the enzyme activity reaction solution, the ADP-Glo reaction solution, and the enzyme activity detection solution at a ratio of 2:2:1. The degree of inhibition of enzyme activity according to the treatment concentration of each compound was calculated based on the […] of the enzyme activity of a solvent control group in which a compound was not treated, and in this case, the concentration of each compound which suppresses the […] enzyme activity by 50% was determined as an IC50 (nM) value. The IC50 (nM) of each compound was determined by 3 datasets and obtained using Prism (version 7.01, GraphPad) software.
In the enzyme assay column, RET (WT) is a non-mutated form, RET (V804M) is a mutated form in which the V amino acid at position 804 of the RET is substituted with M, and CCDC6-RET is a form in which the RET (WT) gene and CCDC6 gene are fused.
On the technique in general: In ADP-Glo the light output rises with the ADP produced.

In general, GI50 refers to the concentration at which growth is held to half of that of the control. As usually defined, the IC50 is the concentration that gives 50% inhibition. Lower therefore signals greater potency. On to `COc1ccc(CN2C3CC2CN(c2ccc(-c4nc(Nc5cc(C)[nH]n5)c5sccc5n4)cn2)C3)cn1` [Example 2, 2-(6-(6-((6-methoxypyridin-3-yl)methyl)-3,6-diazabicyclo [3.1.1]heptan-3-yl)pyridin-3-yl)-N-(5-methyl-1H-pyrazol-3-yl)thieno[3,2-d]pyrimidin-4-amine], for which the GI50 in assay [1] was determined as 14 nM; in assay [2], 48 nM; in assay [3], 49 nM; in assay [4], 4380 nM; in assay [5] it was 11 nM. Besides, the IC50 in assay [6] came out at 12 nM.
Turning to `COc1ccc(CN2C3CC2CN(c2ccc(-c4nc(Nc5cc(C(F)(F)F)[nH]n5)c5occc5n4)cn2)C3)cn1` [Example 4, 2-(6-(6-((6-methoxypyridin-3-yl)methyl)-3,6-diazabicyclo [3.1.1]heptan-3-yl)pyridin-3-yl)-N-(5-(trifluoromethyl)-1H-pyrazol-3-yl)furo[3,2-d]pyrimidin-4-amine], the GI50 in assay [1], in assay [2] and in assay [4] was above 15000 nM throughout. In assay [6], this compound returned an IC50 above 15000 nM.
Regarding `COc1ccc(CN2C3CC2CN(c2ccc(-c4nc5c(c(Nc6cc(C)[nH]n6)n4)CCC5)cn2)C3)cn1` [Example 7, 2-(6-(6-((6-methoxypyridin-3-yl)methyl)-3,6-diazabicyclo [3.1.1]heptan-3-yl)pyridin-3-yl)-N-(5-methyl-1H-pyrazol-3-yl)-6,7-dihydro-5H-cyclopenta[d]py-rimidin-4-amine], the GI50 in assay [1] was 7 nM; in assay [2], 41 nM; in assay [3], 45 nM; in assay [4] it was 6070 nM; in assay [5], 15 nM. For the same compound, the IC50 in assay [6] is 10 nM.
For `COc1ccc(CN2C[C@H]3C[C@@H]2CN3c2ccc(-c3nc(Nc4cc(C)[nH]n4)c4ccccc4n3)cn2)cn1` [Example 34, 2-(6-((1R,4R)-5-((6-methoxy-pyridin-3-yl)methyl)-2,5-diazabicyclo [2.2.1]heptan-2-yl)pyridin-3-yl)-N-(5-methyl-1H-pyrazol-3-yl)quinazolin-4-amine], the GI50 in assay [1] was 20 nM; in assay [3] it was 65 nM; in assay [4], 2590 nM; in assay [5], 19 nM. The 50% inhibitory concentration (IC50) in assay [6] turned out to be 16 nM.
For `COc1ccc(CN2CCN(c3ccc(-c4nc(Nc5cc(C)[nH]n5)c5ccccc5n4)cn3)C[C@H]2C)cn1` [Example 36, (R)-2-(6-(4-((6-methoxypyridin-3-yl)methyl)-3-methylpiperazin-1-yl)pyridin-3-yl)-N-(5-methyl-1H-pyrazol-3-yl)quinazolin-4-amine] the same measures were 32 nM, 259 nM, 4800 nM, 63 nM and 59 nM.
As for `COc1ccc(CN2CCN(c3ccc(-c4nc(Nc5cc(C)[nH]n5)c5ccccc5n4)cn3)CC23CC3)cn1` [Example 37, 2-(6-(4-((6-methoxypyridin-3-yl)methyl)-4,7-diazaspiro[2.5]oc-tan-7-yl)pyridin-3-yl)-N-(5-meth-yl-1H-pyrazol-3-yl)quinazolin-4-amine], the GI50 in assay [1] amounted to 50 nM; in assay [3] it was 305 nM; in assay [4], 4650 nM; in assay [5] it was 107 nM. Further, the IC50 in assay [6] turned out to be 219 nM.
